From patent publication US8802664B2 (Bioproject, priority 2010, dated 2014) come the findings set out here.

One may read the melting point as the temperature, or range, at which the solid turns liquid.

Where a name gives a salt, the structure may show the parent alone. A value given as a limit tells only on which side of the number the result lay.

In one series the target is T1, human H4 receptor (Homo sapiens, UniProt Q9H3N8).
T1 construct: expressed in transfected cells
Briefly: [3H]Histamine binding on membranes of CHO cells stably expressing human H4 receptor. In short, it runs like this:
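First, thawed CHO membranes carrying human H4 were diluted to 20 μg protein per well in pH 7.4 Tris/EDTA buffer. Next, incubation was ended by rapid filtration through PEI-treated GF/B filters followed by cold rinses. Finally, retained radioactivity was counted; 10 μM JNJ 7777120 marked nonspecific binding.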

T1 sequence (Q9H3N8 whole entry): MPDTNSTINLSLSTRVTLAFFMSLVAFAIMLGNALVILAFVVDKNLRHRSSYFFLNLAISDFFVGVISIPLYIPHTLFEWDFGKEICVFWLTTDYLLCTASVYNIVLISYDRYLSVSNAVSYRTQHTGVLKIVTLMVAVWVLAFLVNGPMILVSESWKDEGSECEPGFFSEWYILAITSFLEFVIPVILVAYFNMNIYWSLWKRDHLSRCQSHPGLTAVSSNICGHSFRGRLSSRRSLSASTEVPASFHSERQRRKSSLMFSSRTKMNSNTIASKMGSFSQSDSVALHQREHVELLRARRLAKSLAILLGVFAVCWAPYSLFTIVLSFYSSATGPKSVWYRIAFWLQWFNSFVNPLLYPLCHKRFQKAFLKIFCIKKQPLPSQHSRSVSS

The compound `CN1CCC(OC(c2cccc(Br)c2)c2nc3cc(F)ccc3[nH]2)CC1` (single isomer, unassigned) [Example 567, 2-[(3-bromophenyl)(1-methylpiperidin-4-yloxy)methyl]-5-fluoro-1H-benzimidazole] returned a melting point of 89 °C. At human H4 receptor, this compound had a Ki or IC50 activity class of under 300 nM.
In the case of `C=CCCOc1cccc(C(NC2CCN(C)CC2)c2nc3ccccc3[nH]2)c1` (centres unmarked) [Example 145, [(1H-benzimidazol-2-yl)(3-but-3-enyloxyphenyl)methyl](1-methylpiperidin-4-yl)amine], the melting point came to 71 °C. The same compound registered a Ki or IC50 activity class at human H4 receptor of under 300 nM.
In turn, `Cc1cc(F)c(C(OC2CCN(C)CC2)c2nc3ccccc3[nH]2)c(F)c1` (centres unmarked) [Example 523, 2-[(2,6-difluoro-4-methylphenyl)(1-methylpiperidin-4-yloxy)methyl]-1H-benzimidazole] yielded a melting point of 211 °C. At human H4 receptor, the Ki or IC50 activity class was under 30 nM.
The like results for `CSc1ccccc1-c1cccc(C(OC2CCN(C)CC2)c2nc3ccccc3[nH]2)c1` (centres unmarked) [Example 114, 2-[(1-methylpiperidin-4-yloxy)(2′-methylsulfanylbiphenyl-3-yl)methyl]-1H-benzimidazole] were, in that order, 163 °C and under 300 nM.
`CN1CCC(OC(c2nc3ccccc3[nH]2)c2cc(OCCF)ccc2O)CC1` (centres unmarked) [Example 605] displayed a melting point of 222 °C. The Ki or IC50 activity class at human H4 receptor is under 30 nM.
`CN1CCC(OC(c2nc3ccccc3[nH]2)c2ccc(C(F)(F)F)cc2O)CC1` (centres unmarked) [Example 617] gave a melting point of 144 °C. Moreover, the Ki or IC50 activity class at human H4 receptor was under 30 nM.
`CN1CCC(OC(c2ccccc2)c2nc3cccc(O)c3[nH]2)CC1` (centres unmarked) [Example 210, 2-[(1-methylpiperidin-4-yloxy)phenylmethyl]-3H-benzimidazol-4-ol] showed a melting point of 170.5 °C. At human H4 receptor, this compound yielded a Ki or IC50 activity class of under 1000 nM.
`CCc1cccc(C(OC2CCN(C)CC2)c2nc3ccccc3[nH]2)c1O` (centres unmarked) [Example 616] came in with a melting point of 105 °C. The Ki or IC50 activity class on human H4 receptor was under 30 nM.
Consider `CN1CCC(NC(c2cccc(O)c2)c2nc3ccccc3[nH]2)CC1` (centres unmarked) [Example 126, 3-[(1H-benzimidazol-2-yl)(1-methylpiperidin-4-ylamino)methyl]phenol], for which the melting point amounted to 230 °C. The same compound gave a Ki or IC50 activity class at human H4 receptor of under 300 nM.
`CN1CCC(OC(c2nc3ccccc3[nH]2)c2cc(OCCCF)ccc2O)CC1` (centres unmarked) [Example 606]: the melting point worked out at 114 °C. On human H4 receptor, this compound came in with a Ki or IC50 activity class of under 300 nM.
Turning to `CCc1cccc(C(NC2CCN(C)CC2)c2nc3ccccc3[nH]2)c1` (centres unmarked) [Example 61, [(1H-benzimidazol-2-yl)(3-ethylphenyl)methyl](1-methylpiperidin-4-yl)amine], the melting point came out at 76 °C. Moreover, the Ki or IC50 activity class on human H4 receptor is under 30 nM.
`CN1CCC(NC(c2cccc(OCCCCN)c2)c2nc3ccccc3[nH]2)CC1` (centres unmarked) [Example 367, [[3-(4-aminobutoxy)phenyl](1H-benzimidazol-2-yl)methyl](1-methylpiperidin-4-yl)amine] yielded a melting point of 68 °C. The Ki or IC50 activity class on human H4 receptor was under 300 nM.
For `Cc1ccc(C(NC2CCN(C)CC2)c2nc3ccccc3[nH]2)cc1` (centres unmarked) [Example 273, [(1H-benzimidazol-2-yl)-p-tolyl-methyl](1-methylpiperidin-4-yl)amine], in that order: 183 °C and under 1000 nM.
For `CN1CCC(OC(c2cccc(Br)c2)c2nc3ccccc3[nH]2)CC1` (single isomer, unassigned) [Example 564, 2-[(3-bromophenyl)(1-methylpiperidin-4-yloxy)methyl]-1H-benzimidazole], in that order: 85 °C and under 30 nM.
The compound `CN1CCC(OC(c2cccc(-c3cncnc3)c2)c2nc3ccccc3s2)CC1` (centres unmarked) [Example 216, 2-[(1-methylpiperidin-4-yloxy)(3-pyrimidin-5-yl-phenyl)methyl]benzothiazole] yielded a melting point of 85 °C. For the same compound, the Ki or IC50 activity class on human H4 receptor is under 300 nM.
Consider `CN1CCC(OC(c2cccc(OCc3ccccn3)c2)c2nc3ccccc3[nH]2)CC1` (centres unmarked) [Example 310, 2-{(1-methylpiperidin-4-yloxy)[3-(pyridin-2-ylmethoxy)phenyl]methyl}-1H-benzimidazole], for which the melting point came to 77 °C. The same compound returned a Ki or IC50 activity class on human H4 receptor of under 300 nM.
For `CN1CCC(OC(c2ccccc2)c2nc3cc(Cl)c(Cl)cc3[nH]2)CC1` (centres unmarked) [Example 165, 5,6-dichloro-2-[(1-methylpiperidin-4-yloxy)phenylmethyl]-1H-benzimidazole], in that order: 221 °C and under 300 nM.
`CN1CCC(OC(c2cccc(OCCCCN3CCN(C(=O)OC(C)(C)C)CC3)c2)c2nc3ccccc3[nH]2)CC1` (centres unmarked) [Example 343, 4-(4-{3-[(1H-benzimidazol-2-yl)(1-methylpiperidin-4-yloxy)methyl]phenoxy}butyl)piperazine-1-carboxylic acid tert-butyl ester] yielded a melting point of 64 °C. The same compound registered a Ki or IC50 activity class at human H4 receptor of under 300 nM.
For `CN1CCC(OC(c2cccc(-c3ccc(OC(F)(F)F)cc3)c2)c2nc3ccccc3[nH]2)CC1` (centres unmarked) [Example 182, 2-[(1-methylpiperidin-4-yloxy)(4′-trifluoromethoxybiphenyl-3-yl)methyl]-1H-benzimidazole], in that order: 90 °C and under 30 nM.
The compound `CN1CCC(OC(c2cccc(OC3CCNCC3)c2)c2nc3ccccc3s2)CC1` (centres unmarked) (as salt: oxalate) [Example 415, 2-{(1-methylpiperidin-4-yloxy)[3-(piperidin-4-yloxy)phenyl]methyl}benzothiazole] had a melting point of 76 °C.
`CN1CCC(NC(c2cccc(OCc3ccccc3F)c2)c2nc3ccccc3[nH]2)CC1` (centres unmarked) (as salt: oxalate) [Example 113, {(1H-benzimidazol-2-yl)[3-(2-fluorobenzyloxy)phenyl]methyl}(1-methylpiperidin-4-yl)amine] returned a melting point of 118 °C.
Same read-out and setting: to `COCCOc1cccc(C(OC2CCN(C)CC2)c2nc3ccccc3s2)c1` (centres unmarked) (as salt: oxalate) [Example 277, 2-[[3-(2-methoxyethoxy)phenyl](1-methylpiperidin-4-yloxy)methyl]benzothiazole] belongs 80 °C; to `CN1CCC(NC(c2cccc(OCCC3=CCC4CC3C4(C)C)c2)c2nc3ccccc3[nH]2)CC1` (centres unmarked) (as salt: oxalate) [Example 181, ((1H-benzimidazol-2-yl)-{3-[2-(6,6-dimethyl-bicyclo[3.1.1]hept-2-en-2-yl)ethoxy]phenyl}methyl)(1-methylpiperidin-4-yl)amine], 123 °C.
The compound `CN1CCC(OC(c2cccc(C#CCCCNC(=N)N)c2)c2nc3ccccc3s2)CC1` (centres unmarked) (as salt: hydrochloride) [Example 340, N-(5-{3-[benzothiazol-2-yl(1-methylpiperidin-4-yloxy)methyl]phenyl}pent-4-ynyl)guanidine] had a melting point of 180 °C.
`CN1CCC(OC(c2cccc(OCc3ccco3)c2)c2nc3ccccc3s2)CC1` (centres unmarked) (as salt: oxalate) [Example 267, 2-[[3-(furan-2-ylmethoxy)phenyl](1-methylpiperidin-4-yloxy)methyl]benzothiazole] came in with a melting point of 85 °C.
In turn, `CN1CCC(OC(c2ccc3c(c2)OCO3)c2nc3ccccc3s2)CC1` (centres unmarked) (as salt: hydrochloride) [Example 20, 2-[benzo[1,3]dioxol-5-yl(1-methylpiperidin-4-yloxy)methyl]benzothiazole] showed a melting point of 110 °C.
`CN1CCC(OC(c2cccc(OCC=CCN)c2)c2nc3ccccc3s2)CC1` (centres unmarked) (as salt: oxalate) [Example 431, 4-{3-[benzothiazol-2-yl(1-methylpiperidin-4-yloxy)methyl]phenoxy}but-2-enylamine] displayed a melting point of 117 °C.
Turning to `Cc1ccccc1COc1cccc(C(NC2CCN(C)CC2)c2nc3ccccc3[nH]2)c1` (centres unmarked) (as salt: oxalate) [Example 129, {(1H-benzimidazol-2-yl)[3-(2-methylbenzyloxy)phenyl]methyl}(1-methylpiperidin-4-yl)amine], the melting point stood at 121 °C.
Still for that read-out and setting: to `Cc1cc(C(OC2CCN(C)CC2)c2nc3ccccc3s2)ccc1F` (centres unmarked) (as salt: oxalate) [Example 34, 2-[(4-fluoro-3-methylphenyl)(1-methylpiperidin-4-yloxy)methyl]benzothiazole] belongs 120 °C; to `CN1CCC(OC(c2cccc(N3CCC(N)C3)c2)c2nc3ccccc3s2)CC1` (centres unmarked) (as salt: oxalate) [Example 429, 1-{3-[benzothiazol-2-yl(1-methylpiperidin-4-yloxy)methyl]phenyl}pyrrolidin-3-ylamine], 137 °C; to `CN1CCC(OC(c2ccccc2)c2nc3ccccc3s2)C1` (centres unmarked) (as salt: oxalate) [Example 2, 2-[(1-methylpyrrolidin-3-yloxy)phenyl-methyl]benzothiazole], 120 °C.
In turn, `CN1CCC(OC(c2cccc(OCCCN3CCN(C(=O)OC(C)(C)C)CC3)c2)c2nc3ccccc3[nH]2)CC1` (centres unmarked) (as salt: oxalate) [Example 360, 4-(3-{3-[(1H-benzimidazol-2-yl)(1-methylpiperidin-4-yloxy)methyl]phenoxy}propyl)piperazine-1-carboxylic acid tert-butyl ester] returned a melting point of 140 °C.
`CSc1cccc(-c2cccc(C(OC3CCN(C)CC3)c3nc4ccccc4[nH]3)c2)c1` (centres unmarked) (as salt: oxalate) [Example 116, 2-[(1-methylpiperidin-4-yloxy)(3′-methylsulfanylbiphenyl-3-yl)methyl]-1H-benzimidazole] showed a melting point of 80 °C.
As to `CN1CCC(OC(c2cccc(CCCCNC(=N)N)c2)c2nc3ccccc3s2)CC1` (centres unmarked) (as salt: hydrochloride) [Example 374, N-(4-{3-[benzothiazol-2-yl(1-methylpiperidin-4-yloxy)methyl]phenyl}butyl)guanidine], the melting point worked out at 120 °C.
